Reference: patent US20150105252A1, “SUBSTITUTED PYRAZOLES AS HERBICIDES” (E I DU PONT DE NEMOURS AND COMPANY, priority 2013, published 2015)

Legend:
[1] = tested on: foxtail, giant; assay: Test A preemergence; type: in vivo, Setaria faberii; conditions: for Foxtail, Giant plant response rating (0 to 100 scale): visual injury approx. 10 days after treatment
Procedure, shortened: (§1)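 Visual injury ratings, 0 = no effect to 100 = complete control, taken about 10 days after treatment against untreated controls. Test chemicals, in a non-phytotoxic surfactant-containing solvent, were sprayed onto soil preemergence or onto one- to two-leaf plants (2–10 cm) postemergence, in loam–sand soil under greenhouse conditions.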

[2] = tested on: morningglory; assay: Test A preemergence; type: in vivo, Ipomoea spp.; conditions: for Morningglory plant response rating (0 to 100 scale): visual injury approx. 10 days after treatment
Procedure, shortened: as §1

[3] = tested on: corn; assay: Test A preemergence; type: in vivo, Zea mays; conditions: for Corn plant response rating (0 to 100 scale): visual injury approx. 10 days after treatment
Procedure, shortened: as §1

[4] = tested on: barnyardgrass; assay: Test A postemergence; type: in vivo, Echinochloa crus-galli
Procedure, shortened: as §1

[5] = tested on: velvetleaf; assay: Test A postemergence; type: in vivo, Abutilon theophrasti
Procedure, shortened: as §1

[6] = tested on: corn; assay: Test A postemergence; type: in vivo, Zea mays
Procedure, shortened: as §1

[7] = tested on: lambsquarters; assay: Test C postemergence; type: in vivo, Chenopodium album; conditions: for Plant response rating, Lambsquarters: postemergence
From the text: (§2) Seeds of plant species selected from blackgrass (Alopecurus myosuroides), ryegrass, Italian (Italian ryegrass, Lolium multiflorum), wheat (winter wheat, Triticum aestivum), galium (catchweed bedstraw, Galium aparine), corn (Zea mays), crabgrass, large (large crabgrass, Digitaria sanguinalis), foxtail, giant (giant foxtail, Setaria faberii), johnsongrass (Sorghum halepense), lambsquarters (Chenopodium album), morningglory (Ipomoea coccinea), nutsedge, yellow (yellow nutsedge, Cyperus esculentus), pigweed (redroot pigweed, Amaranthus retroflexus), ragweed (common ragweed, Ambrosia elation), soybean (Glycine max), barnyardgrass (Echinochloa crus-galli), oilseed rape (Brassica napus), waterhemp (common waterhemp, Amaranthus rudis), oat, wild (wild oat, Avena fatua), kochia (Kochia scoparia), Surinam grass (Brachiaria decumbens), foxtail, green (green foxtail, Setaria viridis), goosegrass (Eleusine indica), bromegrass, downy (downy bromegrass, Bromus tectorum), nightshade (eastern black nightshade, Solanum ptycanthum), cocklebur (common cocklebur, Xanthium strumarium), cupgrass, woolly (woolly cupgrass, Eriochloa villosa), bermudagrass (Cynodon dactylon), sunflower, (common oilseed sunflower, Helianthus annuus), Russian thistle (Salsola kali), and velvetleaf (Abutilon theophrasti) were planted into a blend of loam soil and sand and treated preemergence with test chemicals formulated in a non-phytotoxic solvent mixture which included a surfactant.
(§3) At the same time, plants selected from these crop and weed species and also chickweed (common chickweed, Stellaria media), canarygrass (littleseed canarygrass, Phalaris minor), and deadnettle (henbit deadnettle, Lamium amplexicaule), were planted in pots containing Redi-Earth® planting medium (Scotts Company, 14111 Scottslawn Road, Marysville, Ohio 43041) comprising spaghnum peat moss, vermiculite, wetting agent and starter nutrients and treated with postemergence applications of test chemicals formulated in the same manner. Plants ranged in height from 2 to 18 cm (1- to 4-leaf stage) for postemergence treatments. Treated plants and controls were maintained in a greenhouse for 13 to 15 days, after which time all species were compared to controls and visually evaluated. Plant response ratings, summarized in Table C, are based on a scale of 0 to 100 where 0 is no effect and 100 is complete control. A dash (-) response means no test result.

[8] = tested on: morningglory; assay: Test C postemergence; type: in vivo, Ipomoea coccinea; conditions: for Plant response rating, Morningglory: postemergence
From the text: as §2, §3

[9] = tested on: pigweed; assay: Test C postemergence; type: in vivo, Amaranthus retroflexus; conditions: for Plant response rating, Pigweed: postemergence
From the text: as §2, §3

[10] = tested on: oat, wild; assay: Test C postemergence; type: in vivo, Avena fatua; conditions: for Plant response rating, Oat, Wild: postemergence
From the text: as §2, §3

[11] = tested on: velvetleaf; assay: Test C postemergence; type: in vivo, Abutilon theophrasti; conditions: postemergence
From the text: as §2, §3

[12] = tested on: chickweed; assay: Test C postemergence; type: in vivo, Stellaria media; conditions: for Plant response rating, Chickweed: postemergence
From the text: as §2, §3

[13] = tested on: galium; assay: Test C preemergence; type: in vivo, Galium aparine
From the text: as §2, §3

[14] = tested on: barnyardgrass; assay: Test C preemergence; type: in vivo, Echinochloa crus-galli
From the text: as §2, §3

[15] = Preemergence, 1000 g ai/ha, 0 to 100 scale, 0 no effect, 100 complete control
[16] = Postemergence, 1000 g ai/ha, visual rating after approx. 10 days, 0 to 100 scale (0 no effect, 100 complete control)
[17] = Postemergence, 31 g ai/ha, scale 0 to 100
[18] = 250 g ai/ha, scale 0 to 100 (0 no effect, 100 complete control)
[19] = 62 g ai/ha, scale 0 to 100, 0 no effect, 100 complete control
[20] = 125 g ai/ha, scale 0 to 100, 0 no effect, 100 complete control
[21] = preemergence, 125 g ai/ha, visual injury, 0 to 100 scale, approx. 10 days
[22] = preemergence, 500 g ai/ha, visual injury after approx. 10 days, 0 to 100 scale (0 no effect, 100 complete control)
[23] = Postemergence, 500 g ai/ha, 0 to 100 scale (0 no effect, 100 complete control)
[24] = postemergence, 125 g ai/ha, about 10 days, visual rating on 0 to 100 scale (0 no effect, 100 complete control)
[25] = Preemergence, 4 g ai/ha, scale 0 to 100
[26] = Preemergence, 8 g ai/ha, scale 0 to 100
[27] = Preemergence, 16 g ai/ha, scale 0 to 100
[28] = preemergence, 31 g ai/ha, visual rating, scale 0 to 100 (0 no effect, 100 complete control), 13 to 15 days
[29] = preemergence, 62 g ai/ha, scale 0 to 100 (0 no effect, 100 complete control), 13 to 15 days
[30] = preemergence, 125 g ai/ha, 13 to 15 days, scale 0 to 100, 0 = no effect, 100 = complete control
[31] = preemergence, 250 g ai/ha, scale 0 to 100, 0 is no effect, 100 is complete control

CCc1cc(C(=O)NCC(F)(F)F)nn1Cc1cccc(OC(F)(F)F)c1 [Compound 20]
Foxtail, Giant plant response rating [1, 15]: 100
Morningglory plant response rating [2, 15]: 70
Corn plant response rating [3, 15]: 20
Barnyardgrass plant response rating [4, 16]: 60
Velvetleaf plant response rating [5, 16]: 90
Corn plant response rating [6, 16]: 30
Lambsquarters plant response rating [7, 17]: 60
Plant response rating, Lambsquarters [7, 18]: 75
Plant response rating, Lambsquarters [7, 19]: 60
Plant response rating, Lambsquarters [7, 20]: 65
Morningglory plant response rating [8, 17]: 10
Plant response rating, Morningglory [8, 18]: 70
Plant response rating, Morningglory [8, 19]: 25
Plant response rating, Morningglory [8, 20]: 60
Pigweed plant response rating [9, 17]: 60
Plant response rating, Pigweed [9, 18]: 80
Plant response rating, Pigweed [9, 19]: 75
Plant response rating, Pigweed [9, 20]: 75
Oat, Wild plant response rating [10, 17]: 15
Plant response rating, Oat, Wild [10, 18]: 20
Plant response rating, Oat, Wild [10, 19]: 15
Plant response rating, Oat, Wild [10, 20]: 20
Velvetleaf plant response rating ([11]; 62 g ai/ha, scale 0 to 100): 45
Plant response rating, Velvetleaf [11, 18]: 60
Plant response rating, Velvetleaf [11, 20]: 45
Chickweed plant response rating [12, 17]: 45
Plant response rating, Chickweed [12, 18]: 75
Plant response rating, Chickweed [12, 19]: 45
Plant response rating, Chickweed [12, 20]: 75

CCOc1cc(C(=O)NCC(F)(F)F)nn1Cc1cc(C(F)(F)F)nn1C [Compound 140]
Foxtail, Giant plant response rating [1, 21]: 100
Foxtail, Giant plant response rating [1, 22]: 100
Morningglory plant response rating [2, 21]: 80
Morningglory plant response rating [2, 22]: 100
Corn plant response rating [3, 21]: 10
Corn plant response rating [3, 22]: 80
Barnyardgrass plant response rating [4, 23]: 90
Barnyardgrass plant response rating [4, 24]: 70
Velvetleaf plant response rating [5, 23]: 80
Velvetleaf plant response rating [5, 24]: 50
Corn plant response rating [6, 23]: 80
Corn plant response rating [6, 24]: 50
Plant response rating, Galium [13, 25]: 50
Plant response rating, Galium [13, 26]: 60
Plant response rating, Galium [13, 27]: 98
Galium plant response rating [13, 28]: 100
Plant response rating, Barnyardgrass [14, 25]: 0
Plant response rating, Barnyardgrass [14, 26]: 5
Plant response rating, Barnyardgrass [14, 27]: 30
Barnyardgrass plant response rating ([14]; preemergence, 31 g ai/ha, scale 0 to 100 (0 no effect, 100 complete control), 13 to 15 days): 80

O=C(NCC(F)(F)F)c1cc(CCF)n(Cc2ccnc(C(F)(F)F)c2)n1 [Compound 175]
Foxtail, Giant plant response rating (0 to 100 scale) ([1]; preemergence, 125 g ai/ha): 100
Foxtail, Giant plant response rating [1, 22]: 100
Morningglory plant response rating (0 to 100 scale) ([2]; preemergence, 125 g ai/ha): 100
Morningglory plant response rating [2, 22]: 100
Corn plant response rating (0 to 100 scale) ([3]; preemergence, 125 g ai/ha): 50
Corn plant response rating [3, 22]: 80
Barnyardgrass plant response rating [4, 23]: 90
Barnyardgrass plant response rating [4, 24]: 70
Velvetleaf plant response rating [5, 23]: 80
Velvetleaf plant response rating [5, 24]: 60
Corn plant response rating [6, 23]: 90
Corn plant response rating [6, 24]: 60
Galium plant response rating [13, 28]: 85
Galium plant response rating [13, 29]: 100
Plant response rating, Galium [13, 30]: 100
Galium plant response rating [13, 31]: 100
Barnyardgrass plant response rating [14, 28]: 80
Barnyardgrass plant response rating [14, 29]: 80
Plant response rating, Barnyardgrass [14, 30]: 100
Barnyardgrass plant response rating [14, 31]: 100

O=C(NC1CC1)c1cc(CCF)n(Cc2ccnc(C(F)(F)F)c2)n1 [Compound 176]
Foxtail, Giant plant response rating (0 to 100 scale) ([1]; preemergence, 125 g ai/ha): 90
Foxtail, Giant plant response rating [1, 22]: 100
Morningglory plant response rating (0 to 100 scale) ([2]; preemergence, 125 g ai/ha): 80
Morningglory plant response rating [2, 22]: 100
Corn plant response rating (0 to 100 scale) ([3]; preemergence, 125 g ai/ha): 10
Corn plant response rating [3, 22]: 90
Barnyardgrass plant response rating [4, 23]: 90
Barnyardgrass plant response rating [4, 24]: 60
Velvetleaf plant response rating [5, 23]: 90
Velvetleaf plant response rating [5, 24]: 40
Corn plant response rating [6, 23]: 80
Corn plant response rating [6, 24]: 40
Galium plant response rating [13, 28]: 85
Galium plant response rating [13, 29]: 85
Plant response rating, Galium [13, 30]: 98
Galium plant response rating [13, 31]: 100
Barnyardgrass plant response rating [14, 28]: 25
Barnyardgrass plant response rating [14, 29]: 100
Plant response rating, Barnyardgrass [14, 30]: 100
Barnyardgrass plant response rating [14, 31]: 100

CCNC(=O)c1cc(CCF)n(Cc2ccnc(C(F)(F)F)c2)n1 [Compound 178]
Foxtail, Giant plant response rating (0 to 100 scale) ([1]; preemergence, 125 g ai/ha): 90
Foxtail, Giant plant response rating [1, 22]: 100
Morningglory plant response rating (0 to 100 scale) ([2]; preemergence, 125 g ai/ha): 80
Morningglory plant response rating [2, 22]: 100
Corn plant response rating (0 to 100 scale) ([3]; preemergence, 125 g ai/ha): 0
Corn plant response rating [3, 22]: 50
Barnyardgrass plant response rating [4, 23]: 80
Barnyardgrass plant response rating [4, 24]: 70
Velvetleaf plant response rating [5, 23]: 60
Velvetleaf plant response rating [5, 24]: 40
Corn plant response rating [6, 23]: 90
Corn plant response rating [6, 24]: 10
Plant response rating, Galium [13, 27]: 70
Galium plant response rating [13, 28]: 90
Galium plant response rating [13, 29]: 90
Plant response rating, Galium [13, 30]: 95
Plant response rating, Barnyardgrass [14, 27]: 0
Barnyardgrass plant response rating [14, 28]: 10
Barnyardgrass plant response rating [14, 29]: 60
Plant response rating, Barnyardgrass [14, 30]: 100

CCCc1cc(C(=O)NOC(C)C)nn1Cc1cc(C(F)(F)F)nn1C [Compound 203]
Foxtail, Giant plant response rating (0 to 100 scale) ([1]; preemergence, 125 g ai/ha): 80
Foxtail, Giant plant response rating [1, 22]: 100
Morningglory plant response rating (0 to 100 scale) ([2]; preemergence, 125 g ai/ha): 10
Corn plant response rating (0 to 100 scale) ([3]; preemergence, 125 g ai/ha): 20
Corn plant response rating [3, 22]: 80
Barnyardgrass plant response rating [4, 23]: 80
Barnyardgrass plant response rating [4, 24]: 40
Velvetleaf plant response rating ([5]; Postemergence, 125 g ai/ha, 0 to 100 scale, 0 no effect, 100 complete control): 30
Velvetleaf plant response rating [5, 23]: 90
Corn plant response rating [6, 23]: 100
Corn plant response rating [6, 24]: 50
Galium plant response rating [13, 28]: 100
Galium plant response rating [13, 29]: 100
Plant response rating, Galium [13, 30]: 100
Galium plant response rating [13, 31]: 100
Barnyardgrass plant response rating [14, 28]: 35
Barnyardgrass plant response rating [14, 29]: 98
Plant response rating, Barnyardgrass [14, 30]: 100
Barnyardgrass plant response rating [14, 31]: 100
